From patent US20090298708A1, “2'-DEOXY-2'-FLUORO-BETA-D-ARABINONUCLEOSIDE 5'-TRIPHOSPHATES AND THEIR USE IN ENZYMATIC NUCLEIC ACID SYNTHESIS” (priority 2006, published 2009)

Tests used:
DV DNA polymerase = target: T1, DV DNA polymerase (Pyrococcus sp., UniProt Q51334, D141A/DEL493-1029/E143A); experiment: Dropout assay, fidelity of incorporation by DV; assay type: biochemical, Pyrococcus species GB-D; details: 30 min reaction time, 25 μM triphosphates, 55° C., template A: PF41, G: PF43, T: PF21, C: PF23
T1 construct: purchased New England Biolabs; host or cells: E. coli
Procedure: (§1) FIG. 11A illustrates the fidelity of 2′F-araATP incorporation on a DNA template PF41 by DV and 9N DNA polymerases. Reaction conditions: 0.8 unit DV and 9N, 25 μM triphosphates at 55° C. in 30 μL reaction volume; incubation time: 30 min. Group 1 & 5: dNTPs; 2 & 6: dropout of dATP; 3 & 7: 2′F-araNTPs, 4 & 8: dropout of 2′F-araATP; 27mer control DNA is PF39.
(§2) FIG. 11B illustrates the fidelity of 2′F-araGTP incorporation on DNA template PF43 by DV and 9N DNA polymerases. Reaction conditions: primer/template (1:1 molar ratio): 100 nM; 0.4 μL (0.8 unit) DV, 9N, 25 μM triphosphate concentration at 55° C. in 30 μL reaction volume. Reaction time for dNTPs (group 1, 5) was 30 min and others were shown above. Group 1 & 5: dNTPs; 2 & 6: drop out dGTP (i.e. dTTP, dCTP and dATP), 3 & 7: 2TF-araNTPs, 4 & 8: drop out 2′F-araGTP; lane P is the template PF41 as the full-length product control; PF39 is a 27-nt DNA control. All samples were analyzed by 12% denaturing PAGE.
(§3) FIG. 12A illustrates the fidelity of 2′F-araTTP incorporation by DV and 9N DNA polymerases on a DNA template PF21. Reaction conditions: 100 nM primer/template (1:1 molar ratio); 0.4 μL (0.8 unit) DV or 9N, 25 μM triphosphate concentration at 55° C. in 30 μL reaction volume. Reaction time for dNTPs (group 1, 5) was 30 min and others were shown above. Groups 1 & 5: dNTPs; 2 & 6: drop out dTTP; 3 & 7: 2′F-araNTPs; 4 & 8: drop out 2′F-araTTPs. in B: group 1 & 5: dNTPs; 2 & 6: drop out dCTP; 3 & 7: 2′F-araNTPs; 4 & 8: drop out 2′F-araCTPs; PF39 is a 27-nt DNA control. All samples were analyzed by 12% denaturing PAGE.
as §3, with “12B” for “12A”, “fidelity study” for “fidelity”, “2′F-araCTP” for “2′F-araTTP”, “PF23.” for “PF21.”, “(groups” for “(group”, “Groups” for “Groups 1 & 5: dNTPs; 2 & 6: drop out dTTP; 3 & 7: 2′F-araNTPs; 4 & 8: drop out 2′F-araTTPs. in B: group”
(§4) “Dropout assays” (Ichida et al. (2005) J. Am. Chem. Soc. 127:2802-2803) were conducted to assess the fidelity of 2′F-araNTP incorporation (each of 2′F-araATP, 2′F-araCTP, 2′F-araGTP and 2′F-araTTP) by various DNA polymerases (FIGS. 11-14). For example, the 2′F-araNTP of interest is removed from the pool, and the ensuing synthesis on DNA template (e.g. PF21, PF23, PF41, PF43) assessed in comparison with a control reaction containing all four 2′F-araNTPs. For comparison, dropout experiments containing dNTPs are run in parallel. Full-length DNA and FANA products are obtained when all four dNTPs (group 1 and 5) and 2′F-araNTPs (groups 3 and 7) were available, however, some pausing may occur during synthesis of the arabinose modified oligomers. Apparent fidelity was calculated according to the equation:
(§5) 1−[(% full-length−2′F-araNTP)/(% full-length+2′F-araNTP)]
(§6) at 30 min reaction time (sample equation for dNTP values). >99% means that the full-length product was not detectable in our dropout assays.
(§7) “Dropout assays” (Ichida et al. (2005) J. Am. Chem. Soc. 127:2802-2803) were conducted to assess apparent fidelity of 2′F-araNTP incorporation by DV and 9N. In one of these assays, 2′F-araATP was removed from the pool, and the ensuing synthesis assessed in comparison with a control reaction containing all four 2′F-araNTPs. For comparison, dropout experiments containing dNTPs were run in parallel (FIGS. 11-14). Full-length DNA and FANA products were obtained when all four dNTPs (group 1 and 5) and 2′F-araNTPs (groups 3 and 7) were available, although some pausing was evident during synthesis of the arabinose modified oligomers.

9N DNA polymerase = target: T2, 9N DNA polymerase (Thermococcus sp., UniProt Q56366, E143D); experiment: Dropout assay, fidelity of incorporation by 9N; assay type: biochemical, Thermococcus species (strain 9° N-7); details: 30 min reaction time, 25 μM triphosphates, 55° C., template A: PF41, G: PF43, T: PF21, C: PF23
T2 construct: purchased New England Biolabs; host or cells: E. coli
Procedure: as §1, §2, §3
as §3, with “12B” for “12A”, “fidelity study” for “fidelity”, “2′F-araCTP” for “2′F-araTTP”, “PF23.” for “PF21.”, “(groups” for “(group”, “Groups” for “Groups 1 & 5: dNTPs; 2 & 6: drop out dTTP; 3 & 7: 2′F-araNTPs; 4 & 8: drop out 2′F-araTTPs. in B: group”
as §4, §5, §6, §7

[1] = tested on: Phusion DNA polymerase (Ph); experiment: Dropout assay, fidelity of incorporation by Ph; assay type: biochemical; details: 30 min reaction time, 55° C., templates PF21, PF41
From the text: FIG. 13 illustrates the fidelity of 2′F-araNTP incorporation on pyrimidine rich DNA template PF21 by Ph DNA polymerase. […] Template PF41 and primer PF20 are shown; PF39 is a 27-nt DNA control.
FIG. 14 illustrates the fidelity of 2′F-araNTP incorporation on purine rich DNA template PF41 by Ph DNA polymerase. The base sequence of the primer, DNA template and resulting terminated products in different dropout conditions (condition 1-5) is shown. […] Lane 1: dNTPs; 2: drop out dCTP (i.e. dATP, dGTP and dTTP, shorten as AGT, same coding for lanes 3-5), lane 6: 2′F-araNTPs; 7: drop out 2′F-araCTP (i.e. 2′F-araATP, 2′F-araGTP, 2′F-araTTP, shorten as AGT; same coding for lanes 8-10). The template PF41 and the primer PF20 are shown; PF39 is a 27mer DNA control.
For example, the 2′F-araNTP of interest is removed from the pool, and the ensuing synthesis on DNA template (e.g. PF21, PF23, PF41, PF43) assessed in comparison with a control reaction containing all four 2′F-araNTPs. For comparison, dropout experiments containing dNTPs are run in parallel. […] Apparent fidelity was calculated according to the equation:
as §5
In one of these assays, 2′F-araATP was removed from the pool, and the ensuing synthesis assessed in comparison with a control reaction containing all four 2′F-araNTPs. For comparison, dropout experiments containing dNTPs were run in parallel (FIGS. 11-14).
Phusion DNA polymerase (Ph) was evaluated for fidelity of 2′F-araNTP incorporation using the same dropout assay. All four dropout experiments were conducted with the same DNA template PF21 (FIG. 13), or PF41 (FIG. 14).

DNA polymerases = experiment: Primer extension assays, statement for all enzymes studied; assay type: biochemical; details: DNA template PF24; 9N, HIV, MMLV, DV

Structure (SMILES)	% Apparent Fidelity, 2′F-araNTP (DV DNA polymerase)	% Apparent Fidelity, 2′F-araNTP (9N DNA polymerase)	% Apparent Fidelity, 2′F-araNTP [1]	% Apparent Fidelity, dNTP (DV DNA polymerase) [%]	% Apparent Fidelity, dNTP (9N DNA polymerase) [%]	% Apparent Fidelity, dNTP [1] [%]	order of incorporation efficiency (DNA polymerases)
Cc1cn([C@@H]2O[C@H](COP(=O)(O)OP(=O)(O)OP(=O)(O)O)[C@@H](O)[C@@H]2F)c(=O)[nH]c1=O [2′F-araTTP, 1-(2-deoxy-2-fluoro-β-D-arabino-furanosyl)thymine 5′-triphosphate]	T: 3%	T: 76%	T: >99%				
Nc1ccn([C@H]2C[C@H](O)[C@@H](COP(=O)(O)OP(=O)(O)OP(=O)(O)O)O2)c(=O)n1 [dCTP]				3	82	>99	dCTP=2′F-rCTP>2′F-araCTP >>rCTP
Nc1ccn([C@@H]2O[C@H](COP(=O)(O)OP(=O)(O)OP(=O)(O)O)[C@@H](O)[C@@H]2F)c(=O)n1 [2′F-araCTP, 1-(2-deoxy-2-fluoro-β-D-arabinofuranosyl)cytosine 5′-triphosphate]	C: 50%	C: 43%	C: >99%				dCTP=2′F-rCTP>2′F-araCTP >>rCTP
Cc1cn([C@H]2C[C@H](O)[C@@H](COP(=O)(O)OP(=O)(O)OP(=O)(O)O)O2)c(=O)[nH]c1=O [dTTP, reference compound]				19	32	>99	
Nc1ccn([C@@H]2O[C@H](COP(=O)(O)OP(=O)(O)OP(=O)(O)O)[C@@H](O)[C@H]2F)c(=O)n1 [2′F-rCTP, 1-(2-deoxy-2-fluoro-β-D-ribofuranosyl) cytosine 5′-triphosphate, reference compound]							dCTP=2′F-rCTP>2′F-araCTP >>rCTP
